Source: the supplement of paper PMC11208160

Experiment: recombinant barcode read abundance after kanamycin selection (control-corrected) (log10(CPM+1)); higher = more efficient recombination; sequences stand for … in AGTGCAGAGAAAATCGGCCAGTTTTCTCTGCCTGCAGTCCGCATGCCGT…AGATTTATGCAGCGGACTGCCTTTCTCCCAAAGTGATAAACCGGACAGTATCATGGACCGGTTTTCCCGGTAATCCGTATTTGCAAGGTTGGTTTCACT; site = the 11-nt target
How it was run: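 Recombination efficiency was calculated from barcode counts at recombinant junctions, normalized to counts per million, averaged and corrected by the control. Each value is given as log10(CPM+1). The constructs were Gibson-cloned oligos (promoter, target, barcode, J23119-driven first 104 bridge RNA bases) in a vector with the remaining 73 bp and a T7-inducible recombinase, co-electroporated into E. coli with a donor plasmid and plated in duplicate on chloramphenicol/ampicillin LB agar (control) or chloramphenicol/ampicillin/kanamycin with 0.1 mM IPTG.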
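Note: IS621 recombinase and bridge RNA in Escherichia coli cells.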

Sequence	recombinant barcode read abundance (log10)
TCCAAGCCTTGGGTTCTAACCTGTTGCAG (site TCCAATCCTCT)	0.39
TCCAATCCTTGGGTTCTAACCTGTTGCAG (site TCCAAACCTCT)	0.114
TCCAATCCTTGGGTTCTAACCTGTTGCAG (site TCCAACCCTCT)	0.0551
TCCAATCCTTGGGTTCTAACCTGTTGCAG (site TCCAAGCCTCT)	0.167
TCCAATCCTTGGGTTCTAACCTGTTGCAG (site TCCAATCCTCT)	0.381
TCCACACCTTGGGTTCTAACCTGTTGCCT (site TCCACAACTAG)	0.122
TCCACACCTTGGGTTCTAACCTGTTGCCT (site TCCACACCTAG)	0.63
TCCACACCTTGGGTTCTAACCTGTTGCCT (site TCCACAGCTAG)	0.0788
TCCACACCTTGGGTTCTAACCTGTTGCCT (site TCCACATCTAG)	0.0345
TCCACAGCTTGGGTTCTAACCTGTTGCCT (site TCCACAACTAG)	0
TCCACAGCTTGGGTTCTAACCTGTTGCCT (site TCCACACCTAG)	0.212
TCCACAGCTTGGGTTCTAACCTGTTGCCT (site TCCACAGCTAG)	0.784
TCCACAGCTTGGGTTCTAACCTGTTGCCT (site TCCACATCTAG)	0
TCCAGCACTTGGGTTCTAACCTGTTGCCT (site TCCAGCACTAG)	0.412
TCCAGCACTTGGGTTCTAACCTGTTGCCT (site TCTGGCACTAG)	0
TCCAGTACTTGGGTTCTAACCTGTTGCTT (site TCCAGTACTAA)	0.0786
TCCAGTACTTGGGTTCTAACCTGTTGCTT (site TCCGGTACTAA)	0.0788
TCCATAACTTGGGTTCTAACCTGTTGCCT (site GGGGCGTCTCA)	0.0285
TCCATAACTTGGGTTCTAACCTGTTGCCT (site TCCATAACTAG)	0.14
TCCATCCCTTGGGTTCTAACCTGTTGCCT (site TCAATCCCTAG)	0.00792
TCCATCCCTTGGGTTCTAACCTGTTGCCT (site TCCATCCCTAG)	0.613
TCCATCCCTTGGGTTCTAACCTGTTGCCT (site TCGATCCCTAG)	0.0154

Sequence	recombinant barcode read abundance (log10)
TCCATCCCTTGGGTTCTAACCTGTTGCCT (site TCTATCCCTAG)	0.116
TCCCACTCTTGGGTTCTAACCTGTTGCCT (site TCACACTCTAG)	0.158
TCCCACTCTTGGGTTCTAACCTGTTGCCT (site TCCCACTCTAG)	1.56
TCCCACTCTTGGGTTCTAACCTGTTGCCT (site TCGCACTCTAG)	0.0564
TCCCACTCTTGGGTTCTAACCTGTTGCCT (site TCTCACTCTAG)	0.0682
TCCCAGTCTTGGGTTCTAACCTGTTGCTG (site TCCCAGTCTCA)	0.635
TCCCAGTCTTGGGTTCTAACCTGTTGCTG (site TCTCAGTCTCC)	0.0317
TCCCATACTTGGGTTCTAACCTGTTGCAT (site AGTGGACCTGG)	0.2
TCCCATACTTGGGTTCTAACCTGTTGCAT (site TCCCATACTAT)	0.982
TCCCATTCTTGGGTTCTAACCTGTTGCCT (site TCCCATACTAG)	0.197
TCCCATTCTTGGGTTCTAACCTGTTGCCT (site TCCCATCCTAG)	0.03
TCCCATTCTTGGGTTCTAACCTGTTGCCT (site TCCCATGCTAG)	0.0488
TCCCATTCTTGGGTTCTAACCTGTTGCCT (site TCCCATTCTAG)	0.115
TCCCGAGCTTGGGTTCTAACCTGTTGCCT (site TCCCGAACTAG)	0.435
TCCCGAGCTTGGGTTCTAACCTGTTGCCT (site TCCCGACCTAG)	0
TCCCGAGCTTGGGTTCTAACCTGTTGCCT (site TCCCGAGCTAG)	1.55
TCCCGAGCTTGGGTTCTAACCTGTTGCCT (site TCCCGATCTAG)	0.119
TCCGAAACTTGGGTTCTAACCTGTTGCAT (site TCCGAAACTAT)	1.15
TCCGAAACTTGGGTTCTAACCTGTTGCAT (site TCTGAAACTAG)	0.0197
TCCGAGCCTTGGGTTCTAACCTGTTGCAT (site TCCGAGCCTAC)	0.228
TCCGAGCCTTGGGTTCTAACCTGTTGCAT (site TCCGAGCCTAT)	1.98
TCCGCTCCTTGGGTTCTAACCTGTTGCCT (site TCCGCTACTAG)	0.177

Sequence	recombinant barcode read abundance (log10)
TCCGCTCCTTGGGTTCTAACCTGTTGCCT (site TCCGCTCCTAG)	0.323
TCCGCTCCTTGGGTTCTAACCTGTTGCCT (site TCCGCTGCTAG)	0.215
TCCGCTCCTTGGGTTCTAACCTGTTGCCT (site TCCGCTTCTAG)	0.0907
TCCGTACCTTGGGTTCTAACCTGTTGCCG (site TCCGTACCTCG)	0.814
TCCGTACCTTGGGTTCTAACCTGTTGCCG (site TCCGTCCCTCA)	0.0904
TCCGTCTCTTGGGTTCTAACCTGTTGCCA (site TCCGTCTCTCG)	0.233
TCCGTCTCTTGGGTTCTAACCTGTTGCCA (site TCCGTCTCTTG)	0.692
TCCGTCTCTTGGGTTCTAACCTGTTGCCG (site TCCGTCTCTCG)	1.13
TCCGTCTCTTGGGTTCTAACCTGTTGCCG (site TCCGTCTCTTG)	0.0281
TCCTAGTCTTGGGTTCTAACCTGTTGCCA (site GCCTAGTCTTG)	0.405
TCCTAGTCTTGGGTTCTAACCTGTTGCCA (site TCCTAGTCTTG)	0.137
TCCTTAGCTTGGGTTCTAACCTGTTGCCT (site TCATTCGCTAG)	0.0127
TCCTTAGCTTGGGTTCTAACCTGTTGCCT (site TCCTTAGCTAG)	0.579
TCGAAACCTTGGGTTCTAACCTGTTGCCT (site TCGAAACCTAG)	0.625
TCGAAACCTTGGGTTCTAACCTGTTGCCT (site TCGAACCCTAG)	0.0112
TCGAAACCTTGGGTTCTAACCTGTTGCCT (site TCGAAGCCTAG)	0.132
TCGAAACCTTGGGTTCTAACCTGTTGCCT (site TCGAATCCTAG)	0.0362
TCGAAGACTTGGGTTCTAACCTGTTGCCA (site CCGAAGACTAG)	0.14
TCGAAGACTTGGGTTCTAACCTGTTGCCA (site TCGAAGACTTG)	0.177
TCGAGTACTTGGGTTCTAACCTGTTGCCT (site TCGAGTACTAG)	0.274
TCGAGTACTTGGGTTCTAACCTGTTGCCT (site TCGAGTCCTAG)	0.168
TCGAGTACTTGGGTTCTAACCTGTTGCCT (site TCGAGTGCTAG)	0.034

Sequence	recombinant barcode read abundance (log10)
TCGAGTACTTGGGTTCTAACCTGTTGCCT (site TCGAGTTCTAG)	0.404
TCGATGTCTTGGGTTCTAACCTGTTGCCT (site TCGAATTCTAG)	0.174
TCGATGTCTTGGGTTCTAACCTGTTGCCT (site TCGATGTCTAG)	0.706
TCGCAAGCTTGGGTTCTAACCTGTTGCCT (site TCGCAAGCTAG)	0.559
TCGCAAGCTTGGGTTCTAACCTGTTGCCT (site TCTCCAGCTAG)	0.43
TCGCACCCTTGGGTTCTAACCTGTTGCGA (site TCGAACCCTTC)	1.28
TCGCACCCTTGGGTTCTAACCTGTTGCGA (site TCGCACCCTTC)	0.571
TCGCACCCTTGGGTTCTAACCTGTTGCGA (site TCGGACCCTTC)	0.369
TCGCACCCTTGGGTTCTAACCTGTTGCGA (site TCGTACCCTTC)	0.514
TCGCACGCTTGGGTTCTAACCTGTTGCCT (site TCGCACGCTAG)	0.205
TCGCACGCTTGGGTTCTAACCTGTTGCCT (site TCTCACGCTAG)	0.541
TCGCACTCTTGGGTTCTAACCTGTTGCCT (site TCACACTCTAG)	1.22
TCGCACTCTTGGGTTCTAACCTGTTGCCT (site TCCCACTCTAG)	0.22
TCGCACTCTTGGGTTCTAACCTGTTGCCT (site TCGCACTCTAG)	0.0694
TCGCACTCTTGGGTTCTAACCTGTTGCCT (site TCTCACTCTAG)	0.117
TCGCACTCTTGGGTTCTAACCTGTTGCTA (site TCGCACACTTA)	0.262
TCGCACTCTTGGGTTCTAACCTGTTGCTA (site TCGCACTCTTA)	0.911
TCGCCTACTTGGGTTCTAACCTGTTGCCT (site TCGCCTACTAG)	0.049
TCGCCTACTTGGGTTCTAACCTGTTGCCT (site TCGCCTGCTAG)	0.396
TCGCCTTCTTGGGTTCTAACCTGTTGCCT (site TAGCCTTCTAG)	0.482
